Assay results reported in patent publication US10555987B2, “GHRH agonists for the treatment of ischemic disorders” (UNIVERSITY OF MIAMI, priority 2012, dated 2020).
Values joined by “and” are separate entries in the source; they are usually repeats but may differ in a detail not shown here. Equal values may be shown once. Non-standard residues stand in square brackets, D forms with d. Residues, ends and D or L forms follow the SMILES beside them. *: point of attachment. NMeY = CN[C@@H](Cc1ccc(O)cc1)C(=O)O; Agmatine = N=C(N)NCCCCN*; Nle = CCCC[C@H](N)C(=O)O; Orn = NCCC[C@H](N)C(=O)O; Abu = CC[C@H](N)C(=O)O

Experiments:
GH release [1] = experiment: GH releasing potency in vivo, subcutaneous administration (Example 14, Table 12); set-up: species or system rat; conditions: for Serum GH level at selected time after injection (ng/ml), 0 min / Serum GH level at selected time after injection (ng/ml), 15 min / Serum GH level at selected time after injection (ng/ml), 30 min: male rats, dose 3 μg/kg, mean ± SEM; for Serum GH level at selected time after injection (ng/ml), 0 min / Serum GH level at selected time after injection (ng/ml), 15 min / Serum GH level at selected time after injection (ng/ml), 30 min / Relative potency compared to GHRH(1-29), 15 min / Relative potency compared to JI-38, 15 min / Relative potency compared to GHRH(1-29), 30 min / Relative potency compared to JI-38, 30 min: s.c.
Outline: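 Potency is expressed relative to GHRH(1-29)NH2 and JI-38 (each = 1), via equivalent GHRH(1-29)NH2 dose read from a standard curve. Peptides in 5% mannitol given i.v. or s.c. to anaesthetised male Sprague-Dawley rats (200-250 g); serum GH measured by ELISA at selected times.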

GHRH receptor = molecular target: T1, GHRH receptor (Homo sapiens, UniProt Q02643); experiment: GHRH receptor binding, competition with 125I-labeled JV-1-42, human pituitary membrane homogenates (Table 7); set-up: Normal human pituitaries were purchased from the National Hormone and Peptide Program; tissue National Hormone and Peptide Program (A.F. Parlow, Harbor-UCLA Medical Center, Torrance, Calif.); host or cells: normal human pituitary, membrane fraction; conditions: JI-38 = 1, Table 7
T1 sequence (Q02643 23-423): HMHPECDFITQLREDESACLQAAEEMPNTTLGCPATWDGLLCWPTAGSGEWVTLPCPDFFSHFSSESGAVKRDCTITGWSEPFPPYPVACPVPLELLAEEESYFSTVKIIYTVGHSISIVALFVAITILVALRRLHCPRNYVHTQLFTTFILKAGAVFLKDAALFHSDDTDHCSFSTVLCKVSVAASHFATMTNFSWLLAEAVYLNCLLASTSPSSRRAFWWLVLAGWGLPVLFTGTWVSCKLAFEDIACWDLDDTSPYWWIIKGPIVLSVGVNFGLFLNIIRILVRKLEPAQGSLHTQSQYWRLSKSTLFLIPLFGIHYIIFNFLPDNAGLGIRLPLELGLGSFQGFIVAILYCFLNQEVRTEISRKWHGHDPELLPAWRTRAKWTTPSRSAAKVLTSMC
Text: Normal human pituitaries were purchased from the National Hormone and Peptide Program (A.F. Parlow, Los Angeles, County Harbor-UCLA Medical Center, Torrance, Calif.).

[2] = system: myocardial infarction (Fisher-344 rats); experiment: Hemodynamic analysis (pressure-volume loops), body and heart weight after MI, compared to JI-38 (Example 15, Table 16); format: in vivo, rat; set-up: key to ESP (End-Systolic Pressure) / EDP (End-Diastolic Pressure) / ESV (End-Systolic Volume) / PRSW (Preload Recruitable Stroke Work) / Ees (End-systolic Elastance) / dP/dt max (peak rate of the pressure rise) / dP/dt max_EDV / dP/dt min / TAU (relaxation time constant calculated by Weiss method) / SV (Stroke Volume) / CO (Cardiac Output) / SW (Stroke Work) / EF / Ea/Ees / Ea (arterial Elastance): ↓: downward arrow denotes lower than JI-38; ↑: upward arrow denotes greater than JI-38; =denotes same as JI-38; ⬇⬇: double arrow denotes greater effect; ⬆⬆: double arrow denotes greater effect; conditions: rat MI model, s.c. twice daily; pressure-volume loops; expressed in comparison to JI-38
Outline: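 Female 6-month-old Fisher-344 rats after permanent left coronary ligation received GHRH agonists subcutaneously twice daily from 2 h post-surgery (n=10/group). Under ketamine/xylazine/acepromazine anesthesia, LV pressure-volume loops were recorded via carotid micromanometer catheter, calibrated by hypertonic saline bolus and cuvette method; echocardiography also serial.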

GH release [3] = experiment: In vivo endocrine activity, GH release after subcutaneous administration (Table 9); conditions: rat; for GH releasing potency relative to JI-38 (=1): subcutaneous (s.c.) injection
Method: Subcutaneous Administration. Adult male rats were used and anesthetized with pentobarbital (6 mg/100 g, b.w.), by i.p. injection. […] Blood samples were taken from the jugular vein 5, 15 and/or 30 minutes after the injection. The blood samples were centrifuged, plasma was removed and the GH level was measured byELISA. The results are summarized in terms of potency in Table 9.

Compound | Serum GH level at selected time after injection (ng/ml), 0 min (GH release [1]) [ng/mL] | Serum GH level at selected time after injection (ng/ml), 15 min (GH release [1]) [ng/mL] | Serum GH level at selected time after injection (ng/ml), 30 min (GH release [1]) [ng/mL] | Relative potency compared to GHRH(1-29), 15 min (GH release [1]) | Relative potency compared to GHRH(1-29), 30 min (GH release [1]) | Relative affinity (Binding potency) vs JI-38 (GHRH receptor) | CO (Cardiac Output) [2] | EDP (End-Diastolic Pressure) [2] | EF [2] | ESP (End-Systolic Pressure) [2] | ESV (End-Systolic Volume) [2] | Ea (arterial Elastance) [2] | Ea/Ees [2] | Ees (End-systolic Elastance) [2] | PRSW (Preload Recruitable Stroke Work) [2] | SV (Stroke Volume) [2] | SW (Stroke Work) [2] | TAU (relaxation time constant calculated by Weiss method) [2] | dP/dt max (peak rate of the pressure rise) [2] | dP/dt max_EDV [2] | also measured
CCCC[C@H](NC(=O)[C@@H](NC(=O)[C@H](CC(=O)O)NC(=O)[C@H](CCC(N)=O)NC(=O)[C@H](CC(C)C)NC(=O)[C@H](CC(C)C)NC(=O)[C@H](CCCN)NC(=O)[C@H](CCCNC(=N)N)NC(=O)[C@H](C)NC(=O)[C@H](CO)NC(=O)[C@H](CC(C)C)NC(=O)[C@H](CCC(N)=O)NC(=O)[C@H](CC)NC(=O)[C@H](CC(C)C)NC(=O)[C@@H](NC(=O)[C@H](CCCN)NC(=O)[C@H](CCCNC(=N)N)NC(=O)[C@H](Cc1ccc(O)cc1)NC(=O)[C@H](CO)NC(=O)[C@H](CCC(N)=O)NC(=O)[C@@H](NC(=O)[C@H](Cc1ccccc1)NC(=O)[C@@H](NC(=O)[C@H](C)NC(=O)[C@H](CC(=O)O)NC(=O)[C@H](C)NC(=O)[C@H](Cc1ccc(O)cc1)NC)[C@@H](C)CC)[C@@H](C)O)C(C)C)[C@@H](C)CC)C(=O)N[C@@H](CC(=O)O)C(=O)NCCCCNC(=N)N [Peptide P-20356, [N—Me-Tyr^1, Gln^8, Orn^12, Abu^15, Orn^21, Nle^27, Asp^28, Agm^29]hGHRH(1-29) NH2] (H-[NMeY]ADAIFTQSYR[Orn]VL[Abu]QLSAR[Orn]LLQDI[Nle]D-Agmatine) | 25.3 ± 3.9 | 305.4 ± 40.0 | 152.4 ± 21.8 | 91.2 | 150.9 | 16.11 | = | = | = | = | = | ↑ | = | = | = | = | = | = | = | = | potency as compared to JI-38 in both i.v. and s.c. tests (GH release [1]; both i.v. and s.c. tests): increased potency as compared to JI-38; Relative potency compared to JI-38, 15 min (GH release [1]; listed as MR-356): 1.4 and 1.45; Relative potency compared to JI-38, 30 min (GH release [1]; listed as MR-356): 1.4 and 1.35; dP/dt min [2]: =; Stimulation of growth hormone levels after subcutaneous administration (in words) (GH release [3]; s.c.): stimulated greater growth hormone levels than hGHRH or JI-38; GH releasing potency relative to JI-38 (=1) (GH release [3]; 15 min after): 1.72; GH releasing potency relative to JI-38 (=1) (GH release [3]; 30 min after): 1.09
CCCC[C@H](NC(=O)[C@@H](NC(=O)[C@H](CC(=O)O)NC(=O)[C@H](CCC(N)=O)NC(=O)[C@H](CC(C)C)NC(=O)[C@H](CC(C)C)NC(=O)[C@H](CCCN)NC(=O)[C@H](CCCNC(=N)N)NC(=O)[C@H](C)NC(=O)[C@H](CO)NC(=O)[C@H](CC(C)C)NC(=O)[C@H](CCC(N)=O)NC(=O)[C@H](CC)NC(=O)[C@H](CC(C)C)NC(=O)[C@@H](NC(=O)[C@H](CCCN)NC(=O)[C@H](CCCNC(=N)N)NC(=O)[C@H](Cc1ccc(O)cc1)NC(=O)[C@H](CO)NC(=O)[C@H](CCC(N)=O)NC(=O)[C@@H](NC(=O)[C@H](Cc1ccccc1)NC(=O)[C@@H](NC(=O)[C@H](C)NC(=O)[C@H](CC(=O)O)NC(=O)[C@@H](C)NC(=O)[C@H](Cc1ccc(O)cc1)NC)[C@@H](C)CC)[C@@H](C)O)C(C)C)[C@@H](C)CC)C(=O)N[C@@H](CC(=O)O)C(=O)NCCCCNC(=N)N [Peptide P-20361, [N—Me-Tyr^1, D-Ala^2, Gln^8, Orn^12, Abu^15, Orn^21, Nle^27, Asp^28, Agm^29] hGHRH (1-29)NH2] (H-[NMeY][dA]DAIFTQSYR[Orn]VL[Abu]QLSAR[Orn]LLQDI[Nle]D-Agmatine) | 46.1 ± 6.3 | 275.9 ± 46.4 | 142.6 ± 18.4 | 80 | 134.1 | 5.30 | = | ↑ | = | ↑ | ↑ | ↑ | ↓ | ↑ | = | ↓ | ↓ | ↑ | = | ↑ | Relative potency compared to JI-38, 15 min (GH release [1]): 1.27; Relative potency compared to JI-38, 30 min (GH release [1]): 1.20; dP/dt min [2]: =; GH releasing potency relative to JI-38 (=1) (GH release [3]; 15 min after): 1.18; GH releasing potency relative to JI-38 (=1) (GH release [3]; 30 min after): 1.50
